Laboratory results as given in patent publication US20060134073A1, “Compositions and methods for ex vivo preservation of blood vessels for vascular grafts using analogues of cAMP and cGMP” (priority 2004, published 2006).
Values joined by “and” are separate entries in the source; they are usually repeats but may differ in a detail not shown here. Identical values can stand only once.

Legend:
[1] = system: porcine venous graft (intimal hyperplasia); assay: porcine vein graft model: % neointimal expansion (histomorphometry, Movat's stain); type: in vivo; details: for C.% Neointimal Expansion Movat's Trichrome [100 * (neointima area/neointima area + lumen area], Left IJV Experimental: graft incubated 60 minutes in test solution before implantation, one animal per line; for % neointimal expansion (% NE) compared to contralateral venous graft and heparinized saline negative control: in words
Description: (§1) 6.4 The following experiments were performed to determine the ability of various compounds to preserve vein grafts before implantation in a porcine vein graft model. Briefly, the vein grafts were excised from the pig, incubated in solutions containing the various test compounds, implanted back into the pig and excised after a set period of days. The excised veins were then examined for a variety of factors to determine the protective effect of the various compounds.
All slides were also stained with hematoxylin and eosin (H&E) and Movat's Pentachrome stains in preparation for histomorphometry. Calculations based on morphometry measurements were made using Microsoft Excel® software. For histomorphometry, neointimal area, luminal area, and percentage of neointimal expansion (100×[neointimal area/neointimal area+luminal area) was calculated for each venous graft section and the mean for each vessel were calculated.
This study tested the ability of a variety of preservation solutions to retard chronic intimal hyperplasia and protect vein grafts from restenosis and obstruction in a porcine interpositional graft model. The markers of inflammation of interest in this study were CD31 (PECAM-1), CD54 (ICAM-1), and macrophages (L1 or Calprotectin) in formalin-fixed, paraffin-embedded porcine venous graft tissues. Specifically, a porcine internal jugular vein was end to side anastamosed to the ipsilateral carotid artery, following 60 minutes of incubation in heparinized saline (negative control), Phorbol Myristate Acetate (PMA) as positive control, or experimental solutions. In addition to the detection of macrophages with either L1 or Calprotectin antibodies, anti-CD31 was used to detect endothelial cells, and Movat's Trichrome stain, together with biomorphometry was used to measure the percent of intimal expansion. For detection of CD31, an anti-CD31 antibody was applied to formalin-fixed, paraffin-embedded porcine spleen at one dilution (1:50). This dilution of anti-CD-31 antibody had strong to intense staining of splenic endothelium (positive control material). In order to detect CD54, mouse antihuman CD54 antibody was applied at one concentration (50 μg/mL) to ICAM-1/CD54 ultraviolet light (UV) activated resin spot slides. There was strong to intense staining of the ICAM-1/CD54 UV activated resin spot slides with 50 μg/mL of anti-CD54 antibody. The detection of macrophages was performed by the application of one concentration (2 μg/mL) of mouse anti-human macrophages antibody to formalin-fixed, paraffin embedded porcine spleen. There was moderate staining of macrophages with 2 μg/mL of anti-macrophages antibody. […] All slides were also stained with hematoxylin and eosin (H&E) and Movat's Pentachrome stains in preparation for histomorphometry.

[2] = system: macrophages on the intima of porcine venous graft; assay: porcine vein graft model: macrophages on/in intima (anti-macrophage immunoperoxidase); type: in vivo; details: for A.Average Number of Macrophages on/in Intima* (400X objective) MAC-1 Staining, Left IJV Experimental: graft incubated 60 minutes in test solution before implantation, one animal per line
Description: as §1
Anti-macrophage antibody: An indirect immunoperoxidase procedure was performed. Slides were treated with Declere antigen retrieval solution for 15 minutes followed by one rinse in phosphate-buffered saline (PBS) ([0.15M NaCl, pH 7.2]+0.05% Tween 20). Endogenous peroxidase activity was quenched by incubation with the peroxidase solution supplied in the Dako EnVision+ kit followed by two rinses in PBS (0.15M NaCl, pH 7.2)+0.05% Tween 20. The slides were then incubated for 20 minutes in a nonspecific protein block solution comprising 1% BSA and 1.5% normal goat serum in PBS (0.15M NaCl, pH 7.2)+0.05% Tween 20 followed by incubation with primary antibody for 1 hour. After two PBS (0.15M NaCl, pH 7.2)+0.05% Tween 20 rinses, the slides were treated with the Dako EnVision+ peroxidase labeled polymer for 30 minutes. The slides were rinsed twice with PBS (0.15M NaCl, pH 7.2)+0.05% Tween 20 and treated with Dako substrate-chromogen solution for 8 minutes. The slides were then rinsed in tap water, counterstained with hematoxylin, and blued with lithium chloride. Finally, the slides were dehydrated in increasing concentrations of alcohol, cleared with xylene, and mounted for interpretation. PBS (0.15M NaCl, pH 7.2)+0.05% Tween 20+1% BSA served as the diluent for all antibodies. All rinses were performed with PBS (0.15M NaCl, pH 7.2) supplemented with 0.05% Tween 20.
For the anti-macrophage antibody, all slides were judged for adequacy of tissue elements and staining and read blind by the Study Pathologist to quantify the number of macrophages on the intima of the porcine venous graft tissues. The quantification was performed by counting at 400× the number of positively stained macrophages in and on the intima of each section of venous graft tissue in 10 fields and then taking the average number of macrophages per field for each section. A mean score among the four venous graft sections for each test group was calculated.
(§2) This study tested the ability of a variety of preservation solutions to retard chronic intimal hyperplasia and protect vein grafts from restenosis and obstruction in a porcine interpositional graft model. The markers of inflammation of interest in this study were CD31 (PECAM-1), CD54 (ICAM-1), and macrophages (L1 or Calprotectin) in formalin-fixed, paraffin-embedded porcine venous graft tissues. Specifically, a porcine internal jugular vein was end to side anastamosed to the ipsilateral carotid artery, following 60 minutes of incubation in heparinized saline (negative control), Phorbol Myristate Acetate (PMA) as positive control, or experimental solutions. In addition to the detection of macrophages with either L1 or Calprotectin antibodies, anti-CD31 was used to detect endothelial cells, and Movat's Trichrome stain, together with biomorphometry was used to measure the percent of intimal expansion. For detection of CD31, an anti-CD31 antibody was applied to formalin-fixed, paraffin-embedded porcine spleen at one dilution (1:50). This dilution of anti-CD-31 antibody had strong to intense staining of splenic endothelium (positive control material). In order to detect CD54, mouse antihuman CD54 antibody was applied at one concentration (50 μg/mL) to ICAM-1/CD54 ultraviolet light (UV) activated resin spot slides. There was strong to intense staining of the ICAM-1/CD54 UV activated resin spot slides with 50 μg/mL of anti-CD54 antibody. […]

[3] = system: endothelium (CD31) of porcine venous graft; assay: porcine vein graft model: endothelialization score (CD31 staining); type: in vivo; details: for B.Endothelialization Score CD31 Staining, Left IJV Experimental: mean score on 0-5 scale, graft incubated 60 minutes in test solution before implantation, one animal per line; for endothelialization of treated venous graft compared to control contralateral venous graft: in words, based on slightly higher endothelialization scores
Description: as §1
Anti-CD31 antibody: An indirect immunoperoxidase procedure was performed. Slides were treated with Declere antigen retrieval solution for 15 minutes followed by two rinses in phosphate-buffered saline (PBS [0.15M NaCl, pH 7.2]+0.05% Tween 20). The slides were then treated with 3% hydrogen peroxide to block endogenous peroxidase activity. After two PBS (0.15M NaCl, pH 7.2)+0.05% Tween 20 rinses, the slides were incubated for 20 minutes in a nonspecific protein block comprising 1% BSA, 1.5% normal horse serum, and 5% milk in PBS (0.15M NaCl, pH 7.2)+0.05% Tween 20. The slides were then incubated with primary antibody for 2 hours at 37° C. followed by two PBS (0.15M NaCl, pH 7.2)+0.05% Tween 20 rinses. The biotinylated secondary antibody was then added and incubated for 30 minutes. After two rinses in PBS (0.15M NaCl, pH 7.2)+0.05% Tween 20, the slides were treated with ABC reagent for 30 minutes followed by two PBS (0.15M NaCl, pH 7.2)+0.05% Tween 20 rinses. The slides were incubated with stable DAB substrate for 6 minutes, rinsed in tap water, counterstained with hematoxylin, and blued with lithium chloride. Finally, all slides were dehydrated in increasing concentrations of alcohol, cleared with xylene, and mounted for interpretation. PBS (0.15M NaCl, pH 7.2)+0.05% Tween 20+1% BSA served as the diluent for the primary antibody and ABC reagent. The diluent for the secondary antibody also contained 1% milk. All rinses were performed with PBS (0.15M NaCl, pH 7.2) supplemented with 0.05% Tween 20.
For the anti-CD31 antibody, all slides were judged for adequacy of tissue elements and staining and read blind by the Study Pathologist to quantify the degree of endothelialization of each section of venous graft tissue using the following scale: 0=no endothelialization, 1=less than 25% endothelialization, 2=25-50% endothelialization, 3=51-75% endothelialization, 4=greater than 75% endothelialization, 5=complete endothelialization. A mean score among the four venous graft sections for each test group was calculated.
as §2

[4] = system: porcine venous graft; assay: porcine vein graft model: graft occlusion at explant; type: in vivo; design: key: SO = substantially occluded; details: graft incubated 60 minutes in test solution before implantation; one animal per line
Description: as §1
This study tested the ability of a variety of preservation solutions to retard chronic intimal hyperplasia and protect vein grafts from restenosis and obstruction in a porcine interpositional graft model. The markers of inflammation of interest in this study were CD31 (PECAM-1), CD54 (ICAM-1), and macrophages (L1 or Calprotectin) in formalin-fixed, paraffin-embedded porcine venous graft tissues. Specifically, a porcine internal jugular vein was end to side anastamosed to the ipsilateral carotid artery, following 60 minutes of incubation in heparinized saline (negative control), Phorbol Myristate Acetate (PMA) as positive control, or experimental solutions. In addition to the detection of macrophages with either L1 or Calprotectin antibodies, anti-CD31 was used to detect endothelial cells, and Movat's Trichrome stain, together with biomorphometry was used to measure the percent of intimal expansion. […]

[5] = system: jugular vein patch graft (neointimal hyperplasia); assay: murine autologous arterialized vein patch model: neointimal expansion of vein grafts; type: in vivo, C57BL/6J mice; details: vein patch preserved 2 hours at 25° C. in heparinized saline with additive (db-cAMP 2 mmol/L; 8-Br-cAMP 0.1 mmol/L; Rp-cAMPS 0.25 mmol/L), harvested postoperative day 21; mean ±SEM
[6] = system: MAC-1+ leukocytes adhering to the endothelium of the vein patch; assay: en face immunofluorescence: MAC-1+ leukocyte adhesion to vein patch; type: in vivo, C57BL/6J mice; details: 2 hours of preservation with db-cAMP vs without additive; 24 hours after operation; P<0.05
[7] = system: endothelial cells; details: stated as known; cited from earlier work

Row | Compound | C.% Neointimal Expansion Movat's Trichrome [100 * (neointima area/neointima area + lumen area], Left IJV Experimental [1] | % neointimal expansion (% NE) compared to contralateral venous graft and heparinized saline negative control [1] | A.Average Number of Macrophages on/in Intima* (400X objective) MAC-1 Staining, Left IJV Experimental [2] | B.Endothelialization Score CD31 Staining, Left IJV Experimental [3] | graft status printed in place of a value (Left IJV Experimental) [4] | endothelialization of treated venous graft compared to control contralateral venous graft [3] | neointimal expansion [5] | macrophage scores of treated venous graft compared to contralateral venous graft ([2]; in words) | MAC-1+ cells adhered to the surface of vein patch [6] | db cAMP concentrations that become toxic to endothelial cells [7]
1 | CCCCCCCCCCCCCC(=O)O[C@@H]1[C@@H](C)[C@@]2(O)[C@@H](C=C(CO)C[C@]3(O)C(=O)C(C)=C[C@@H]23)[C@@H]2C(C)(C)[C@]12OC(C)=O [PMA, Phorbol Myristate Acetate] | 78.9% and 78.8% | slight increase | 0 and 3.55 | 4.5 and 5 |  |  |  |  |  | 
2 | Cc1[nH]c(=O)c(C#N)cc1-c1ccncc1 [Milrinone (PDSIII), Milrinone] | 70.4% |  | 0 | 5 | SO | better endothelialization |  |  |  | 
3 | CCCC(=O)Nc1ncnc2c1ncn2[C@@H]1O[C@@H]2COP(=O)(O)O[C@H]2[C@H]1OC(=O)CCC [db-cAMP, N^6,2′-O-dibutyryl adenosine 3′,5′-cyclic monophosphate] | 55.6% | large and significant increase | 0.025 | 5 |  | better endothelialization | 51.0%±4.7% | decreases | markedly decreased | higher than 4 mM
4 | Lipopolysaccaride | 77.7% |  | 1.575 | 4.75 |  |  |  |  |  | 
5 | Nc1ncnc2c1nc(Br)n2[C@@H]1O[C@@H]2COP(=O)(O)O[C@H]2[C@H]1O [8-Br-cAMP, 8-bromo-adenosine 3′,5′-cyclic monophosphate] |  |  |  |  |  |  | 44.3%±5.0% |  |  | 
6 | Enbrel |  |  |  |  | SO |  |  |  |  | 
7 | O=C1CCC(N2C(=O)c3ccccc3C2=O)C(=O)N1 (centres unmarked) [Thalidomide] | 78.2% and 80.0% |  | 1.15 and 1.45 | 4.75 and 4.5 |  |  |  |  |  | 
